From PubChem BioAssay (NCI)
Values joined by “and” are separate entries in the source; they are usually repeats but may differ in a detail not shown here. Equal values may be shown once.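 Step 1: Grow cells in 96-well plates. Step 2: Expose to compound for 48 hours at 5 concentrations. Step 3: Interpolate endpoints linearly; if unreached, use highest concentration. GI50 = concentration required for 50% inhibition of growth. At the TGI there is no net growth.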

Columns and labels:
Assay in all cases: DTP human tumour cell line panel, 48 h
UACC-257 melanoma = system: UACC-257 melanoma
NCI-H460 lung = system: NCI-H460 lung
UO-31 renal = system: UO-31 renal
OVCAR-5 ovarian = system: OVCAR-5 ovarian
ACHN renal = system: ACHN renal
COLO 205 colon = system: COLO 205 colon
A549 NSCLC = system: A549 NSCLC
OVCAR-8 ovarian = system: OVCAR-8 ovarian
SK-OV-3 ovarian = system: SK-OV-3 ovarian
SF-539 CNS = system: SF-539 CNS

Row | Structure (SMILES) | TGI (UACC-257 melanoma) | TGI (NCI-H460 lung) | TGI (UO-31 renal) | TGI (OVCAR-5 ovarian) | TGI (ACHN renal) | TGI (COLO 205 colon) | TGI (A549 NSCLC) | TGI (OVCAR-8 ovarian) | TGI (SK-OV-3 ovarian) | TGI (SF-539 CNS) | GI50 (UACC-257 melanoma) | GI50 (NCI-H460 lung) | GI50 (UO-31 renal) | GI50 (OVCAR-5 ovarian) | GI50 (ACHN renal) | GI50 (COLO 205 colon) | GI50 (A549 NSCLC) | GI50 (OVCAR-8 ovarian) | GI50 (SK-OV-3 ovarian) | GI50 (SF-539 CNS)
1 | CC(C)c1ccc(Cc2ccc(C(C)C)c(NC(=O)C(=O)Cc3cnc4ccccc4n3)c2C(C)C)c(C(C)C)c1NC(=O)C(=O)Cc1cnc2ccccc2n1 | > 100 µM | > 100 µM | > 100 µM | > 100 µM | > 100 µM | > 100 µM | > 100 µM | > 100 µM | > 100 µM | > 100 µM |  |  |  |  |  |  |  |  |  | 
2 | CCOC(=O)C(Cc1ccc(N=NN(C)C)cc1)NC(=O)CC1c2ccccc2-c2ccccc21 (centres undefined) | > 100 µM | > 100 µM | > 100 µM | > 100 µM | > 100 µM | > 100 µM | > 100 µM | > 100 µM | > 100 µM | > 100 µM |  |  |  |  |  |  |  |  |  | 
3 | O=C(CI)NC(=O)NC(=O)NCc1ccccc1 | 23.9 µM | 23.4 µM | 3.31 µM | 10.8 µM | 3.76 µM | 4.64 µM | 42.8 µM | 19.6 µM | 29 µM | 4 µM | 11.5 µM | 5.3 µM | 1.66 µM | 2.98 µM | 1.95 µM | 2.13 µM | 18.7 µM | 4.32 µM | 15.4 µM | 1.92 µM
4 | CCC(Oc1ccc(OC)c2c1C(=O)CCC2)C(=O)O (centres undefined) | > 100 µM | > 100 µM | > 100 µM | > 100 µM | > 100 µM | > 100 µM | > 100 µM | > 100 µM | > 100 µM | > 100 µM |  |  |  |  |  |  |  |  |  | 
5 | Nc1nc(-c2ccccc2)c(CC(=O)O)s1 | > 100 µM | > 100 µM | > 100 µM | > 100 µM | > 100 µM | > 100 µM | > 100 µM | > 100 µM | > 100 µM | > 100 µM |  |  |  |  |  |  |  |  |  | 
6 | Cn1cc(-c2ccc3ncc(-c4ccc(CC(=O)Nc5cc(C(C)(C)C)nn5C)cc4)cc3c2)cn1 | > 20 µM | > 20 µM | 2.08 µM | > 20 µM | > 20 µM | > 20 µM | > 20 µM | 7.08 µM | > 20 µM | > 20 µM | 1.45 µM | 0.786 µM | 0.331 µM | 7.83 µM | 0.689 µM | 2.78 µM | 1.44 µM | 0.736 µM | 0.934 µM | 2.22 µM
7 | O=C(Nc1ccc(-n2cc(-c3ccncc3)c(-c3ccc(Cl)c(O)c3)n2)cc1)c1cc(C(F)(F)F)cc(C(F)(F)F)c1 | > 100 µM | 14 µM | 13.5 µM | > 100 µM | 31.1 µM | 14 µM | 22 µM | 34.8 µM | 6.98 µM | 13.8 µM | 8.95 µM | 3.82 µM | 2.8 µM | 21.4 µM | 6.47 µM | 3.17 µM | 5.43 µM | 6.54 µM | 2.01 µM | 2.95 µM
8 | CCN(CC)CCNc1n[n+]([O-])c2cc([N+](=O)[O-])ccc2[n+]1[O-] | 4.14 µM and 3.08 µM and 2.43 µM | 1.63 µM and 1.16 µM and 1.28 µM | 15.3 µM and 10.8 µM and 10.9 µM | 4.45 µM and 3.44 µM and 4.33 µM | 3.93 µM and 2.06 µM and 1.92 µM | 2.5 µM and 1.74 µM and 2.12 µM | 3.11 µM and 3.08 µM and 2.48 µM | 1.99 µM and 1.7 µM and 1.53 µM | 4.33 µM and 3.79 µM and 3.86 µM | 2.57 µM and 1.36 µM and 1.38 µM | 1.69 µM and 0.825 µM and 1.07 µM | 0.264 µM and 0.0353 µM and 0.0939 µM |  |  | 0.401 µM and 0.212 µM and 0.187 µM |  |  |  |  | 0.809 µM and 0.402 µM and 0.355 µM
9 | CC(C)N(C(=O)C12C3C4C1C1C4(C#N)C3C12C(=O)O)C(C)C (centres undefined) | > 100 µM | > 100 µM | > 100 µM | > 100 µM | > 100 µM | > 100 µM | > 100 µM | > 100 µM | > 100 µM | > 100 µM |  |  |  |  |  |  |  |  |  | 
10 | CN1CCCc2nc3ccccc3n2C1 | > 100 µM | > 100 µM | > 100 µM | > 100 µM | > 100 µM | > 100 µM | > 100 µM | > 100 µM | > 100 µM | > 100 µM |  |  |  |  |  |  |  |  |  | 
11 | O=C(Nc1nc(=S)[nH][nH]1)C(=O)C(c1cnc2ccc([N+](=O)[O-])cc2n1)[N+](=O)[O-] (centres undefined) | > 100 µM | > 100 µM | > 100 µM | > 100 µM | > 100 µM | > 100 µM | > 100 µM | > 100 µM | > 100 µM | > 100 µM |  |  |  |  |  |  |  |  |  | 
12 | COc1ccc(N(CC(=O)O)N=O)cc1 | > 100 µM | > 100 µM | > 100 µM | > 100 µM | > 100 µM | > 100 µM | > 100 µM | > 100 µM | > 100 µM | > 100 µM |  |  |  |  |  |  |  |  |  | 
13 | COS(=O)c1cc(Cl)cc(Cl)c1OC(=O)CSSCC(=O)Oc1c(Cl)cc(Cl)cc1S(=O)OC (centres undefined) | 65.3 µM | 55.5 µM | 60 µM | 41.2 µM | 64.2 µM | 44.8 µM | 47.2 µM | 61.9 µM | 80.7 µM | 47.6 µM |  |  |  |  |  |  |  |  |  | 
14 | CCCC(O)[C@@]1(CC)CC(C)C(O)(C2(C)C[C@H](C)[C@@H](C(CC)C(=O)C(C)[C@@H](O)[C@H](C)C3OC(O)(C(CC)C(=O)O)[C@@H](C)C(O)C3CC)O2)O1 (some centres undefined) | 1.94 µM | 2.14 µM | 3.18 µM | 5.35 µM | 6.78 µM | 0.83 µM | 5.71 µM | 6.05 µM | 6.54 µM | 2.76 µM |  |  |  |  |  |  |  |  |  | 
15 | CC(C)(C)C1=NO[C@H]2[C@@H](NC(=O)c3ccccc3)CC[C@@H]12 | > 100 µM | > 100 µM | > 100 µM | > 100 µM | > 100 µM | > 100 µM | > 100 µM | > 100 µM | > 100 µM | > 100 µM |  |  |  |  |  |  |  |  |  | 
16 | O=C1Nc2ccc(-c3cccnc3)cc2/C1=C/c1cc(Br)c(O)c(Br)c1 | 9.36 µM | > 25 µM | > 18.3 µM | > 25 µM | > 25 µM | > 25 µM | > 25 µM | > 25 µM | 24.9 µM | > 22.4 µM | 4.07 µM | 6.97 µM | 6.54 µM | 15.6 µM | 8.15 µM | 11.8 µM | 8.05 µM | 9.89 µM | 8.11 µM | 5.15 µM
17 | N#Cc1c(-c2ccccc2)c(-c2ccccc2)cc2c(=O)c3ccc(Cl)cc3[nH]c12 | > 100 µM | > 100 µM | > 100 µM | > 100 µM | > 100 µM | > 100 µM | > 100 µM | > 100 µM | > 100 µM | > 100 µM |  |  |  |  |  |  |  |  |  | 
18 | N#Cc1ccccc1Sc1ccccc1N | > 100 µM | > 100 µM | > 100 µM | > 100 µM | > 100 µM | > 100 µM | > 100 µM | > 100 µM | > 100 µM | > 100 µM |  |  |  |  |  |  |  |  |  | 
